Assay [1] relates to spatial recognition and memory. Briefly: Y-maze test. Format: in vivo, male ICR mice. The note with it: 12 MPK p.o. once daily, ten days after drug administration; control 61.8%. How it is done: (§1) Twenty-eight male ICR mice, 5 weeks old, weighing approximately 27-30 g, were used. The animals were housed in a controlled environment with a temperature of 26.8 ± 0.5°C, relative humidity of 48.4 ± 1.7%, and lighting from 07:00 to 19:00. They were fed a standard diet (AIN-93G diet) and given free access to drinking water. After 7 days of acclimation and habituation, healthy animals were selected for the experiments.
(§2) Mirodenafil was dissolved in 10 mL of distilled water to prepare a 12 mg/kg (MPK) solution. Sildenafil and tadalafil were similarly prepared at 12 MPK each.
(§3) • 1) Control group (n=7): p.o. administration of distilled water (D.W.) • 2) Experimental group 1 (n=7): p.o. administration of mirodenafil (12 MPK) • 3) Experimental group 2 (n=7): p.o. administration of sildenafil (12 MPK) • 4) Experimental group 3 (n=7): p.o. administration of tadalafil (12 MPK)
(§4) Following 7 days of acclimation, the control group received distilled water orally once daily for 15 days, and the experimental groups received their respective drugs orally once daily for 15 days.
Mice were placed at the center of a Y-maze and allowed to explore for 8 minutes. Entries were recorded when all four paws fully entered an arm. The maze was cleaned with 70% alcohol between tests. Spontaneous alternation behavior was analyzed using the Yamada statistical method. An alternation was counted when the mouse consecutively entered three different arms. The percentage of spontaneous alternation was calculated as (number of alternations / total arm entries) × 100. • iii. Recording data(ex): BCABCBABCBCABBCACBACCABCABCACBCABC • iv. [formula]
Data were expressed as mean ± standard error of the mean (SEM). Statistical significance was assessed by T-test with thresholds of P < 0.01 or *0.01 < P < 0.05. Data analysis and plotting were performed using Prism 8 software.

Assay [2] relates to context-specific fear memory. Briefly: Passive avoidance test. The class given is in vivo. The note with it: 12 MPK p.o. once daily, after 15 doses, followed by electric shock; male ICR mice. How it is done:
as §1, §2, §3, §4
The passive avoidance step-through apparatus was illuminated in the bright chamber at 50% lightness. Mice were placed inside and allowed to move freely between the bright and dark chambers for 5 minutes. After 5 minutes, accommodation was terminated, and mice rested in their home cages.
Mice that completed accommodation were placed in the bright chamber under the same lighting conditions. When the mouse fully entered the dark chamber (all four paws on the floor), an electric shock (0.4 mA, 2 seconds, repeated twice with a 2-second interval) was delivered (maximum latency: 65 seconds, single session). […]
Mice that completed training were placed again in the bright chamber under the same conditions. The latency to enter the dark chamber (all four paws touching the floor) was recorded without shock (maximum latency: 300 seconds). […]
(§5) Data were expressed as mean ± standard error of the mean (SEM). Statistical significance was assessed by T-test with thresholds of P < 0.01 or *0.01 < P < 0.05. […]

Assay [3] deals with object recognition and memory. Briefly: Novel object recognition test. The class given is in vivo, male ICR mice. The note with it: 12 MPK p.o. once daily, eight days after drug administration; control group 49.0%. As to the method: as §1, §2, §3, §4
Mice were placed in the center of a rat cage and allowed to explore freely for 5 minutes (accommodation). Afterward, mice rested in their home cages.
Following accommodation, two identical objects (Object A and Object B) of the same color, shape, and size were placed at fixed intervals in the cage. […]
Twenty-four hours after Training 1, mice were reintroduced to the cage with the same objects (A and B) spaced similarly. Exploration time of each object was recorded for 5 minutes. […]
Twenty-four hours after Training 2, mice were introduced to the cage containing one familiar object (A) and one novel object (C) differing in color, shape, or size. Exploration time was recorded for 5 minutes. The percentage of time spent exploring each object was calculated using the following formula: (Formula to calculate % exploration time for objects) • i. […]
as §5

Structures are written as SMILES.

In turn, `CCCOc1ccc(S(=O)(=O)N2CCN(CCO)CC2)cc1-c1nc2c(CCC)cn(CC)c2c(=O)[nH]1` [mirodenafil] came in with a spontaneous alternation rates in assay [1] of 58.4%. In assay [2], the “decrease of latency time compared to the control” value (“decrease of latency time” below) is recorded as 73.5%. Besides, the “exploration of novel objects” value in assay [3] was 53.7%.

`CCCc1nn(C)c2c(=O)[nH]c(-c3cc(S(=O)(=O)N4CCN(C)CC4)ccc3OCC)nc12` [sildenafil] registered a spontaneous alternation rates in assay [1] of 60.7%. Also, the “decrease of latency time” value in assay [2] was 55.5%. In addition, in assay [3], the “exploration of novel objects” value is 57.9%.

On to `CN1CC(=O)N2[C@H](c3ccc4c(c3)OCO4)c3[nH]c4ccccc4c3C[C@@H]2C1=O` [tadalafil], for which, in assay [1], the spontaneous alternation rates turned out to be 59.6%. For the same compound, the “decrease of latency time” value in assay [2] was 63.2%. In assay [3], the “exploration of novel objects” value turned out to be 57.0%.
